Test results: patent US10207002B2, “Sustained release formulation and tablets prepared therefrom” (Merck Sharp & Dohme Corp., priority 2015, dated 2019)

How the values were obtained:
[1] = Solubility in a basic environment, such as the intestine; assay type: physicochemical
[2] = Bioavailability on co-administration with a proton-pump inhibitor; assay type: in vivo; conditions: co-administered with a proton-pump inhibitor

| Solubility [1] | Bioavailability [2] | Structure (SMILES) |
| --- | --- | --- |
| poorly soluble | sharp drop in bioavailability | COCCOc1ccc(N2CCN(CCn3ncc4c3nc(N)n3nc(-c5ccco5)nc43)CC2)cc1 [Formula IA, preladenant] |
| poorly soluble |  | CC#Cc1nc2c3cnn(CCN4CCN(c5cc6c(C)noc6cc5F)CC4)c3nc(N)n2n1 [Formula IB] |
